Results on two compounds are retold here after patent publication US10004738B2, “Combination treatment comprising administration of 2-amino-3,5,5-trifluoro-3,4,5,6-tetrahydropyridines” (H. Lundbeck A/S, priority 2015, dated 2018).

Read-outs that look alike come from different tables or passages of the source.

Data set [1] has as its target BACE1 enzyme (Homo sapiens (Human), UniProt P56817). The data set is described as follows: BACE1 efficacy assay (FRET-based, commercial BACE1 kit). It counts as biochemical. The following applies: test compound 10 μM, 3 nM enzyme, 250 nM substrate. As to the method:
The efficacy assay was performed as a FRET-based assay using a commercially available BACE1 kit (Life Technologies, P2985). 2 μl test compound at 10 μM (final concentration) and 15 μl BACE1 enzyme from the kit (final concentration 3 nM) were preincubated for 15 minutes at room temperature before addition of 15 μl of substrate from the kit (250 nM final concentration) and incubated for additional 90 minutes at room temperature. The assay plate was subsequently read in a Pherastar (Ex540/Em590). […] The efficacy of the test compounds was evaluated at 10 μM (final concentration) and defined as the percent inhibition of the enzyme activity using the equation % inhibition=100%−normalized enzyme activity in percent.

Data set [2] is described as follows: Brain and plasma exposure in rats after oral dosing (DMPK analysis). The format is in vivo. As to conditions: male, Sprague Dawley, rat, 3 hours post dose. As to the method: Young adult Male Sprague Dawley rats of approximately 250 g weight were purchased from Charles River and received 0-30 mg/kg of vehicle (10% HP betaCD+1M MeSO4, pH 2.5) or test compounds (dissolved in vehicle) only by oral gavage (p.o). The compounds are dosed at a volume of 5 ml/kg. Cohorts of 5-10 animals were established for each treatment condition.
At T=180 minutes after initial dosing the animals were stunned and decapitated with a guillotine. Trunk-blood was sampled in EDTA coated tubes after decapitation of the animal. The blood was centrifuged at 2200G at 4° C. for 15 minutes and the plasma was collected and frozen at −80° C. The blood was aliquoted for Aβ ELISA and DMPK analysis. Immediately following sacrifice, the brain was extracted and split into 2 halves. The right hemibrains were snap frozen on dry ice and stored at −80° C. The left half was dissected; with the front forebrain taken for Aβ ELISA and the remainder used for DMPK analysis. These samples were also snap frozen on dry ice and stored at −80° C. until use for analysis.
Compounds 1, 5, 17, 18, and 24 were administered at doses of 10 or 30 mg/kg p.o. and brain and plasma samples were collected at 3 hours post dose and the following exposures and reductions in Aβ40 levels were measured as described above.

[3] abbreviates: 10 mg/kg p.o., brain, read-out: Exp, brain.
[4] abbreviates: 10 mg/kg p.o., plasma, read-out: Exp, plasma.
[5] abbreviates: 30 mg/kg p.o., brain, read-out: Exp, brain.
[6] abbreviates: 30 mg/kg p.o., plasma, read-out: Exp, plasma.

Chain of BACE1 enzyme (P56817 46-501): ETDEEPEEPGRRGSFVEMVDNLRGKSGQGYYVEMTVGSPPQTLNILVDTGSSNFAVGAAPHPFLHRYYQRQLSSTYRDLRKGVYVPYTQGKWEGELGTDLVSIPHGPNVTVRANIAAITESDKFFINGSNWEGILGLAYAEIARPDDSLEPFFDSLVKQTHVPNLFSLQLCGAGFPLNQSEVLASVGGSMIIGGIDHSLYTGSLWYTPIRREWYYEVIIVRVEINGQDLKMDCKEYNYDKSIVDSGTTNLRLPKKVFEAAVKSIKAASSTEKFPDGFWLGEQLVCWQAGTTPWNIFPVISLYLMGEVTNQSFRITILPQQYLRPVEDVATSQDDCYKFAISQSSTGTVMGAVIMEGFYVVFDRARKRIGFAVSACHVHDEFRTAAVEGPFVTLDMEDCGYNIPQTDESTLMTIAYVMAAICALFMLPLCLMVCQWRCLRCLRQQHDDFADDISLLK

Turning to `Cc1cc(C#N)cnc1C(=O)Nc1ccc(F)c([C@@]2(C)N=C(N)[C@@](C)(F)CC2(F)F)c1` [Compound 18, N-(3-((2R,5S)-6-amino-3,3,5-trifluoro-2,5-dimethyl-2,3,4,5-tetrahydropyridin-2-yl)-4-fluorophenyl)-5-cyano-3-methylpicolinamide], the inhibition at 10 µM in data set [1] came to 102%. Further, the concentration at 3 h in data set [2] (setting [3]) was 412 ng/g; in data set [2] (setting [4]), 778 ng/g; in data set [2] (setting [5]), 1610 ng/g; in data set [2] (setting [6]) it was 3000 ng/g.
The corresponding values for `C[C@@]1(F)CC(F)(F)[C@@](C)(c2cc(NC(=O)c3cnc(C(F)F)cn3)ccc2F)N=C1N` [Compound 24, N-(3-((2R,5R)-6-amino-3,3,5-trifluoro-2,5-dimethyl-2,3,4,5-tetrahydropyridin-2-yl)-4-fluorophenyl)-5-(difluoromethyl)pyrazine-2-carboxamide] are 98%, 134 ng/g, 96.2 ng/g, 809 ng/g and 673 ng/g.
